Assay results from US8530525B2 (priority 2009, dated 2013).

Legend:
[1] = biological target: α3β4 (Homo sapiens, UniProt P30926+P32297); conditions: cited from earlier work
[2] = in vivo; cited from earlier work
[3] = biological target: α7 neuronal nAChR (Homo sapiens, UniProt P36544); conditions: cited from earlier work
[4] = system: population spikes (PS) recorded from the CA1 area of the rat hippocampal slice; assay type: cell-based
[5] = system: population spikes (PS) of the hippocampal slice

Chain of α7 neuronal nAChR (P36544 23-502): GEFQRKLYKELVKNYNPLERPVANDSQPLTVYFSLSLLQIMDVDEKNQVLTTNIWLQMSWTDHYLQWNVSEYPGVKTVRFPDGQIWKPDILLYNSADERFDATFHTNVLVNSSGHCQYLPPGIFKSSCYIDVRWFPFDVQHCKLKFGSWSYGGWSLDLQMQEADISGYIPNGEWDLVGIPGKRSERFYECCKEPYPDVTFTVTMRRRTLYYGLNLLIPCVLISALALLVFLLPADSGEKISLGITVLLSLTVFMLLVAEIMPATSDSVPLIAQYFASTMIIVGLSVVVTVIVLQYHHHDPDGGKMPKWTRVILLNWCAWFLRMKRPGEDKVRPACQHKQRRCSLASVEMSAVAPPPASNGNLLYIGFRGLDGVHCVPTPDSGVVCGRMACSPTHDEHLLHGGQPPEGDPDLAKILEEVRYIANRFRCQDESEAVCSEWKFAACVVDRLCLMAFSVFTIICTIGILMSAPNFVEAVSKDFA
Chain of α3β4 (P32297 32-505): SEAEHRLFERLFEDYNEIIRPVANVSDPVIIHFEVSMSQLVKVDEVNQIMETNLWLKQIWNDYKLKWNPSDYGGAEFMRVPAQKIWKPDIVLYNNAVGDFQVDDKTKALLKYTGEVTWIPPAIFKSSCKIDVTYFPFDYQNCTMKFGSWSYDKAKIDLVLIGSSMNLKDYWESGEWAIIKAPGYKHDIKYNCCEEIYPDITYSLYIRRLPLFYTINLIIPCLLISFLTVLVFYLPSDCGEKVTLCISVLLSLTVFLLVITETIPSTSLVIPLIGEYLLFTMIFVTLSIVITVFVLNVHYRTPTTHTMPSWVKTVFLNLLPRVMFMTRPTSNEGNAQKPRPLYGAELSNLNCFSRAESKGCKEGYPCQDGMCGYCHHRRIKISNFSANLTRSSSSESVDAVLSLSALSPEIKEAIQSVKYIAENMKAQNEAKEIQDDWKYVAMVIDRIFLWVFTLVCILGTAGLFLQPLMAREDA
Chain of α3β4 (P30926 22-498): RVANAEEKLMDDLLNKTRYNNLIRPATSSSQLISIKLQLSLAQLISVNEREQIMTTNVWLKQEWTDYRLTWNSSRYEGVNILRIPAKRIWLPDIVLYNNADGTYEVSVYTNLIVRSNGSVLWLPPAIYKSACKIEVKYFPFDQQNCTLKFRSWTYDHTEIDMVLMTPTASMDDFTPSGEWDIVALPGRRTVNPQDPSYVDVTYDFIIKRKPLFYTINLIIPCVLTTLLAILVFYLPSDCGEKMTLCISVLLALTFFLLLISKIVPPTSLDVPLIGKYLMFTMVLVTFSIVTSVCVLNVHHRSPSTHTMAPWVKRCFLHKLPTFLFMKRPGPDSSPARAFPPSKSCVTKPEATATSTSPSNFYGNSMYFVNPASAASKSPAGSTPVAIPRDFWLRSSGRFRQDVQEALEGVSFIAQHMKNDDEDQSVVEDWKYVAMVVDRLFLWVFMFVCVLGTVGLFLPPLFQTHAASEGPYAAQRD

For `CC1=CC(O)CC(C)(O)C=CC(C(C)C)CCC(C)=CCC1` [4R cembranoid, (1S,2E,4R,6R,7E,11E)-cembra-2,7,11-triene-4,6-diol], the “Activity at α3β4 subtypes” value [1] is given as “little activity”, the Brain penetration [2] is given as “readily penetrates into the brain” and the Metabolism and excretion [2] is given as “promptly metabolized in the liver and excreted as a soluble metabolite”. For the same compound, the “Antagonism of α7 neuronal nAChR” value [3] was “subtype selective antagonist”.

With `CCOP(=O)(OCC)Oc1ccc([N+](=O)[O-])cc1` [POX, paraoxon] the “Maximum inhibition of the PS” value [4] was about 50% and the IC50 ([4]; read-out: POX IC50 for inhibition of PS) was about 1000 nM.

In the case of `CN1[C@@H]2CC[C@H]1C[C@@H](OC(=O)C(CO)c1ccccc1)C2` (stereo partly shown) [atropine], the “Effect on PS area” value [5] is reported as “did not affect PS area”.
